Numbers after ± are expanded uncertainties.

The conditions of data set [1]: Crystal.
The nature of data set [2]: Solid-liquid equilibrium temperature. The settings on record: Crystal.

As to `CCCCCCCCCCCC(=O)O` [dodecanoic acid], the Normal melting temperature in data set [1] was 43.03 ± 1.2 °C. Further, the Solid-liquid equilibrium temperature is reported as 320.6 ± 1.2 K in data set [2] (20000 kPa); 325.17 ± 1.2 K in data set [2] (40000 kPa); 329.76 ± 1.2 K in data set [2] (60000 kPa); 331.86 ± 1.2 K in data set [2] (70000 kPa); 334.1 ± 1.2 K in data set [2] (80000 kPa); 336.1 ± 1.2 K in data set [2] (90000 kPa).
Turning to `CCCCCCCC(=O)O` [octanoic acid], in data set [1], the Normal melting temperature was 16.71 ± 1.2 °C. In addition, the Solid-liquid equilibrium temperature worked out at 294.52 ± 1.2 K in data set [2] (20000 kPa); 299.35 ± 1.2 K in data set [2] (40000 kPa); 303.85 ± 1.2 K in data set [2] (60000 kPa); 308.09 ± 1.2 K in data set [2] (80000 kPa); 309.98 ± 1.2 K in data set [2] (90000 kPa).
Take `CCCCCCCCCCCCCC(=O)O` [tetradecanoic acid]: the Normal melting temperature in data set [1] was 54.4 ± 1.2 °C. Besides, the Solid-liquid equilibrium temperature turned out to be 332.3 ± 1.2 K in data set [2] (20000 kPa); 337.25 ± 1.2 K in data set [2] (40000 kPa); 342.31 ± 1.2 K in data set [2] (60000 kPa); 344.68 ± 1.2 K in data set [2] (70000 kPa); 346.55 ± 1.2 K in data set [2] (80000 kPa); 348.93 ± 1.2 K in data set [2] (90000 kPa).

The values are drawn from the NIST ThermoML archive (doi:10.1016/j.fluid.2007.02.007).
